Results published in US20100267561A1, “HERBICIDAL PYRIDAZINONE DERIVATIVES” (priority 2007, published 2010).

How the values were obtained:
Format in all cases: in vivo
[1] = tested on: ducksalad (Heteranthera limosa); assay: Test B flooded paddy test plant response; settings: Heteranthera limosa, read-out: Plant response rating, Ducksalad
In short: (§1)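 Rice, umbrella sedge, ducksalad and barnyardgrass at 2-leaf stage; pots flooded to 3 cm, compounds applied into paddy water, depth held throughout. Greenhouse 13 to 15 days, then visual rating vs untreated controls on 0–100 scale (0 no effect, 100 complete control); dash means no test result.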

rice (Oryza sativa) = assay: Test B flooded paddy test plant response; settings: Oryza sativa, read-out: Plant response rating, Rice
In short: as §1

[2] = tested on: umbrella sedge (Cyperus difformis); assay: Test B flooded paddy test plant response; settings: Cyperus difformis, read-out: Plant response rating, Sedge, Umbrella
In short: as §1

[3] = tested on: Italian ryegrass (Lolium multiflorum); assay: Test C pre-/postemergence plant response
In short: (§2)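 Formulated in a surfactant-containing non-phytotoxic solvent, compounds were tested under controlled growth conditions as preemergence and postemergence treatments. Ratings from 0 (no effect) to 100 (complete control) were assigned visually relative to controls 15 to 25 days later.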

[4] = tested on: annual bluegrass (Poa annua); assay: Test C pre-/postemergence plant response
In short: as §2

[5] = tested on: blackgrass (Alopecurus myosuroides); assay: Test C pre-/postemergence plant response
In short: as §2

[6] = tested on: canarygrass (Phalaris minor); assay: Test C pre-/postemergence plant response
In short: as §2

[7] = tested on: downy bromegrass (Bromus tectorum); assay: Test C pre-/postemergence plant response
In short: as §2

[8] = tested on: green foxtail (Setaria viridis); assay: Test C pre-/postemergence plant response
In short: as §2

[9] = tested on: pigweed (Amaranthus retroflexus); assay: Test C pre-/postemergence plant response
In short: as §2

[10] = tested on: spring barley (Hordeum vulgare); assay: Test C pre-/postemergence plant response
In short: as §2

[11] = tested on: spring wheat (Triticum aestivum); assay: Test C pre-/postemergence plant response
In short: as §2

[12] = tested on: wild mustard (Sinapis arvensis); assay: Test C pre-/postemergence plant response
In short: as §2

wild oat (Avena fatua) = assay: Test C pre-/postemergence plant response
In short: as §2

[13] = tested on: windgrass (Apera spica-venti); assay: Test C pre-/postemergence plant response
In short: as §2

[14] = tested on: winter barley (Hordeum vulgare); assay: Test C pre-/postemergence plant response
In short: as §2

[15] = tested on: winter wheat (Triticum aestivum); assay: Test C pre-/postemergence plant response
In short: as §2

[16] = Flood (flooded paddy test), 62 g ai/ha, scale 0 to 100, 0 no effect, 100 complete control
[17] = Flood (flooded paddy test), 250 g ai/ha, scale 0 to 100, 0 no effect, 100 complete control
[18] = Flood, 31 g ai/ha, scale 0 to 100
[19] = Flood (flooded paddy test), 125 g ai/ha, scale 0 to 100, 0 no effect, 100 complete control
[20] = Postemergence, 8 g ai/ha, scale 0 to 100, 0 no effect, 100 complete control
[21] = Postemergence, 16 g ai/ha, scale 0 to 100, 0 no effect, 100 complete control
[22] = Postemergence, 31 g ai/ha, scale 0 to 100, 0 no effect, 100 complete control
[23] = Postemergence, 62 g ai/ha, scale 0 to 100, 0 no effect, 100 complete control
[24] = Preemergence, 8 g ai/ha, scale 0 to 100 (0 no effect, 100 complete control)
[25] = Preemergence, 16 g ai/ha, scale 0 to 100 (0 no effect, 100 complete control)
[26] = Preemergence, 31 g ai/ha, scale 0 to 100 (0 no effect, 100 complete control)
[27] = Preemergence, 62 g ai/ha, scale 0 to 100, 0 no effect, 100 complete control

**Q.** Which results are given for `CCc1c(C)c(-c2ccc(Cl)cc2)nn1-c1c(O)cnn(C)c1=O` [Compound 26, 4-[3-(4-chlorophenyl)-5-ethyl-4-methyl-1H-pyrazol-1-yl]-5-hydroxy-2-methyl-3(2H)-pyridazinone]?
**A.** pest or weed control at 62 g/ha [1, 16]: 50%; pest or weed control at 250 g/ha [1, 17]: 70%; pest or weed control at 31 g/ha [1, 18]: 40%; plant injury at 62 g/ha (rice (Oryza sativa); [16]): 0%; plant injury at 125 g/ha (rice (Oryza sativa); [19]): 0%; plant injury at 250 g/ha (rice (Oryza sativa); [17]): 0%; plant injury at 31 g/ha (rice (Oryza sativa); [18]): 0%; pest or weed control at 62 g/ha [2, 16]: 0%; pest or weed control at 125 g/ha [2, 19]: 0%; pest or weed control at 250 g/ha [2, 17]: 75%; pest or weed control at 31 g/ha [2, 18]: 0%; Plant response rating, Ryegrass, Italian [3, 20]: 70; Plant response rating, Ryegrass, Italian [3, 21]: 85; Plant response rating, Ryegrass, Italian [3, 22]: 95; Plant response rating, Ryegrass, Italian [3, 23]: 100; Plant response rating, Ryegrass, Italian [3, 24]: 15; Plant response rating, Ryegrass, Italian [3, 25]: 75; Plant response rating, Ryegrass, Italian [3, 26]: 100; Plant response rating, Ryegrass, Italian [3, 27]: 100; Plant response rating, Bluegrass [4, 20]: 0; Plant response rating, Bluegrass [4, 21]: 0; Plant response rating, Bluegrass [4, 22]: 0; Plant response rating, Bluegrass [4, 23]: 15; Plant response rating, Bluegrass [4, 24]: 0; Plant response rating, Bluegrass [4, 25]: 0; Plant response rating, Bluegrass [4, 26]: 0; Plant response rating, Bluegrass [4, 27]: 0; Plant response rating, Blackgrass [5, 20]: 50; Plant response rating, Blackgrass [5, 21]: 50; Plant response rating, Blackgrass [5, 22]: 70; Plant response rating, Blackgrass [5, 23]: 95; Plant response rating, Blackgrass [5, 24]: 20; Plant response rating, Blackgrass [5, 25]: 50; Plant response rating, Blackgrass [5, 27]: 75; Plant response rating, Canarygrass [6, 20]: 25; Plant response rating, Canarygrass [6, 21]: 75; Plant response rating, Canarygrass [6, 22]: 75; Plant response rating, Canarygrass [6, 23]: 100; Plant response rating, Canarygrass [6, 24]: 0; Plant response rating, Canarygrass [6, 25]: 0; Plant response rating, Canarygrass [6, 26]: 65; Plant response rating, Canarygrass [6, 27]: 70; Plant response rating, Bromegrass, Downy [7, 20]: 0; Plant response rating, Bromegrass, Downy [7, 21]: 0; Plant response rating, Bromegrass, Downy [7, 22]: 0; Plant response rating, Bromegrass, Downy [7, 23]: 0; Plant response rating, Bromegrass, Downy [7, 24]: 0; Plant response rating, Bromegrass, Downy [7, 25]: 0; Plant response rating, Bromegrass, Downy [7, 26]: 0; Plant response rating, Bromegrass, Downy [7, 27]: 20; Plant response rating, Foxtail, Green [8, 20]: 90; Plant response rating, Foxtail, Green [8, 21]: 95; Plant response rating, Foxtail, Green [8, 22]: 95; Plant response rating, Foxtail, Green [8, 23]: 98; Plant response rating, Foxtail, Green [8, 24]: 0; Plant response rating, Foxtail, Green [8, 25]: 0; Plant response rating, Foxtail, Green [8, 26]: 75; Plant response rating, Foxtail, Green [8, 27]: 100; Plant response rating, Pigweed [9, 20]: 0; Plant response rating, Pigweed [9, 21]: 0; Plant response rating, Pigweed [9, 22]: 0; Plant response rating, Pigweed [9, 23]: 20; Plant response rating, Pigweed [9, 24]: 0; Plant response rating, Pigweed [9, 25]: 0; Plant response rating, Pigweed [9, 26]: 0; Plant response rating, Pigweed [9, 27]: 20; Plant response rating, Barley, Spring [10, 20]: 0; Plant response rating, Barley, Spring [10, 21]: 0; Plant response rating, Barley, Spring [10, 22]: 35; Plant response rating, Barley, Spring [10, 23]: 50; Plant response rating, Barley, Spring [10, 24]: 0; Plant response rating, Barley, Spring [10, 25]: 0; Plant response rating, Barley, Spring [10, 26]: 25; Plant response rating, Barley, Spring [10, 27]: 35; Plant response rating, Wheat, Spring [11, 20]: 10; Plant response rating, Wheat, Spring [11, 21]: 10; Plant response rating, Wheat, Spring [11, 22]: 30; Plant response rating, Wheat, Spring [11, 23]: 30; Plant response rating, Wheat, Spring [11, 24]: 0; Plant response rating, Wheat, Spring [11, 25]: 0; Plant response rating, Wheat, Spring [11, 26]: 25; Plant response rating, Wheat, Spring [11, 27]: 25; Plant response rating, Mustard, Wild [12, 20]: 0; Plant response rating, Mustard, Wild [12, 21]: 0; Plant response rating, Mustard, Wild [12, 24]: 0; Plant response rating, Mustard, Wild [12, 25]: 0; Plant response rating, Mustard, Wild [12, 26]: 0; Plant response rating, Mustard, Wild [12, 27]: 0; Plant response rating, Oat, Wild (wild oat (Avena fatua); [20]): 70; Plant response rating, Oat, Wild (wild oat (Avena fatua); [21]): 98; Plant response rating, Oat, Wild (wild oat (Avena fatua); [22]): 98; Plant response rating, Oat, Wild (wild oat (Avena fatua); [23]): 100; Plant response rating, Oat, Wild (wild oat (Avena fatua); [24]): 0; Plant response rating, Oat, Wild (wild oat (Avena fatua); [25]): 15; Plant response rating, Oat, Wild (wild oat (Avena fatua); [26]): 65; Plant response rating, Oat, Wild (wild oat (Avena fatua); [27]): 75; Plant response rating, Windgrass [13, 20]: 0; Plant response rating, Windgrass [13, 21]: 0; Plant response rating, Windgrass [13, 22]: 20; Plant response rating, Windgrass [13, 23]: 65; Plant response rating, Windgrass [13, 24]: 30; Plant response rating, Windgrass [13, 25]: 30; Plant response rating, Windgrass [13, 26]: 98; Plant response rating, Windgrass [13, 27]: 100; Plant response rating, Barley, Winter [14, 20]: 0; Plant response rating, Barley, Winter [14, 21]: 0; Plant response rating, Barley, Winter [14, 22]: 10; Plant response rating, Barley, Winter [14, 23]: 40; Plant response rating, Barley, Winter [14, 24]: 0; Plant response rating, Barley, Winter [14, 25]: 0; Plant response rating, Barley, Winter [14, 26]: 10; Plant response rating, Barley, Winter [14, 27]: 10; Plant response rating, Wheat, Winter [15, 20]: 0; Plant response rating, Wheat, Winter [15, 21]: 0; Plant response rating, Wheat, Winter [15, 22]: 30; Plant response rating, Wheat, Winter [15, 23]: 35; Plant response rating, Wheat, Winter [15, 24]: 0; Plant response rating, Wheat, Winter [15, 25]: 0; Plant response rating, Wheat, Winter [15, 26]: 0; Plant response rating, Wheat, Winter [15, 27]: 25
